11 molecules from ChEMBL document CHEMBL1201862, “PubChem BioAssay data set” (2004) can be followed below.

Among the test systems are SK-MEL-28; LOX IMVI; EKVX; Hs-578T; A549; SK-MEL-2; CCRF-CEM; A498; SK-OV-3; HOP-62; SN12C; MCF7; HT-29; MOLT-4; BT-549; NCI/ADR-RES; T47D; SW-620; U-251; SNB-75.
Common to all, as to assay: DTP human tumour cell line panel, 48 h

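In this assay, cells in 96-well plates receive the compound at five concentrations for 48 hours. Endpoints are linearly interpolated between the surrounding concentrations. The concentration for 50% growth inhibition is given as GI50.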 Activity calls are given as the source filed them. Cut-off read from the data, not from the text of the source: active = GI50 up to about 1.1 µM and inactive = higher. Square brackets hold non-standard residues; d marks the D form. Peptide text beside a SMILES is read from it. A value given as a limit tells only on which side of the number the result lay.

A word on the GI50: it is the concentration giving 50% growth inhibition. Regarding `Cc1cn([C@H]2C[C@H](N=[N+]=[N-])[C@@H](CO)O2)c(=O)[nH]c1=O` [ZIDOVUDINE], the GI50 in the test with SK-MEL-28 is > 100 µM (inactive); in the test with LOX IMVI, > 83 µM (inactive); in the test with EKVX, > 100 µM (inactive); in the test on Hs-578T, 885 µM (inactive); in the test with A549 it was > 97.3 µM (inactive); in the test on SK-MEL-2, > 100 µM (inactive). Also, the GI50 in the test with CCRF-CEM is 288 µM (inactive); with A498 it was 66.2 µM (inactive); in the test on SK-OV-3 it was > 100 µM (inactive); in the test with HOP-62, > 100 µM (inactive); in the test on SN12C it was > 100 µM (inactive); in the test on MCF7, 66.4 µM (inactive). Moreover, the GI50 in the test on HT-29 is 238 µM (inactive); in the test with MOLT-4, > 100 µM (inactive); in the test on BT-549 it was 488 µM (inactive); in the test on NCI/ADR-RES it was > 96.4 µM (inactive); in the test on T47D it was > 100 µM (inactive); with SW-620, > 100 µM (inactive).

Regarding `N=C(N)NCCC[C@H]1NC(=O)[C@@H](CCC(=O)O)NC(=O)[C@@H](CC(=O)O)NC(=O)[C@@H](CCC(=O)O)NC(=O)[C@H](Cc2c[nH]c3ccccc23)NC1=O` (cyclo(W[dE][dD][dE][dR])), the GI50 is > 7.5 µM (inactive) in the test on LOX IMVI; > 7.5 µM (inactive) in the test with EKVX; > 7.5 µM (inactive) with Hs-578T; > 7.5 µM (inactive) in the test with A549; 0.191 µM (active) in the test on SK-MEL-2; > 7.5 µM (inactive) with CCRF-CEM. The GI50 with U-251, in the test with A498, with SK-OV-3, in the test with HOP-62, with SN12C and in the test on MCF7 was > 7.5 µM (inactive) throughout. Further, the GI50 in the test with HT-29, in the test with MOLT-4, with BT-549, with NCI/ADR-RES, in the test with T47D and with SW-620 was > 7.5 µM (inactive) throughout.

Regarding `Nc1nc(N)c(Cn2ccnc2)c(O)n1`, the GI50 with LOX IMVI, in the test on EKVX, in the test on Hs-578T, with A549, with SK-MEL-2 and with U-251 was > 100 µM (inactive) each time. For the same molecule, the GI50 is > 100 µM (inactive) in the test with A498; > 100 µM (inactive) in the test on SNB-75; > 100 µM (inactive) with SK-OV-3; > 100 µM (inactive) with HOP-62; 5.15 µM (inactive) with SN12C; > 100 µM (inactive) in the test with MCF7. Besides, the GI50 with HT-29, in the test with BT-549, in the test on NCI/ADR-RES and with T47D was > 100 µM (inactive) in each case.

`COC(=O)CN(CC(=O)NCCNC(=O)OC(C)(C)C)C1CCCCC1N(CC(=O)OC)CC(=O)OC` (configuration not stated): the GI50 with SK-MEL-28, with LOX IMVI, in the test on EKVX, in the test on Hs-578T, with A549 and in the test on SK-MEL-2 was > 100 µM (inactive) each time. The GI50 with CCRF-CEM, in the test with U-251, with A498, in the test with SK-OV-3, with HOP-62 and in the test with SN12C was > 100 µM (inactive) throughout. The GI50 in the test with MCF7, with HT-29, in the test on MOLT-4, in the test on BT-549, with NCI/ADR-RES and in the test with T47D was > 100 µM (inactive) each time. For the same molecule, the GI50 with SW-620 is > 100 µM (inactive).

Turning to `COc1ccc(C(=O)/C=C2\Nc3cccnc3N\C2=C/C(=O)c2ccc(OC)cc2)cc1`, the GI50 was 16.9 µM (inactive) in the test with SK-MEL-28; 13.9 µM (inactive) in the test with LOX IMVI; 20.8 µM (inactive) with EKVX; 15.2 µM (inactive) in the test on Hs-578T; 15.6 µM (inactive) in the test on A549; 23.7 µM (inactive) in the test with SK-MEL-2. In addition, the GI50 is > 100 µM (inactive) in the test on CCRF-CEM; 14.6 µM (inactive) in the test on U-251; > 100 µM (inactive) in the test on A498; 13 µM (inactive) with SK-OV-3; 4.94 µM (inactive) in the test with HOP-62; 12.2 µM (inactive) in the test on SN12C. Besides, the GI50 is 14.8 µM (inactive) in the test on MCF7; 14.5 µM (inactive) in the test with HT-29; 27.9 µM (inactive) in the test with MOLT-4; 18.8 µM (inactive) with BT-549; 17.4 µM (inactive) in the test on NCI/ADR-RES; 11.5 µM (inactive) with T47D.

For the molecule `Cc1nc2c(=O)n(-c3ccccc3)c(=O)n(-c3ccccc3)c2o1`, the GI50 with LOX IMVI, in the test on EKVX, in the test with Hs-578T, in the test on A549, in the test on SK-MEL-2 and with CCRF-CEM was > 100 µM (inactive) in each case. Moreover, the GI50 in the test on U-251, with A498, with SNB-75, in the test with SK-OV-3, with HOP-62 and with SN12C was > 100 µM (inactive) in each case. Further, the GI50 with MCF7, in the test with HT-29, with MOLT-4, with BT-549, with NCI/ADR-RES and in the test on T47D was > 100 µM (inactive) each time. Besides, the GI50 in the test with SW-620 is > 100 µM (inactive).

For the molecule `COc1cc(OC)nc(-n2c(N)c(C#N)c3ccc([N+](=O)[O-])cc3c2=O)n1`, the GI50 in the test with SK-MEL-28, in the test on LOX IMVI, in the test on EKVX, in the test on Hs-578T, with A549 and in the test with SK-MEL-2 was > 100 µM (inactive) each time. Also, the GI50 with CCRF-CEM was > 100 µM (inactive); in the test with U-251, 92.3 µM (inactive); in the test on A498 it was > 100 µM (inactive); in the test on SNB-75 it was > 100 µM (inactive); in the test on HOP-62, > 100 µM (inactive); with SN12C, > 100 µM (inactive). Further, the GI50 in the test on MCF7, in the test with HT-29, in the test with MOLT-4, in the test with BT-549, in the test on NCI/ADR-RES and in the test on T47D was > 100 µM (inactive) throughout. The GI50 with SW-620 was > 100 µM (inactive).

Consider `Cc1nc2ccccc2c(=O)n1-c1n[nH]c2ccccc12`, for which the GI50 with SK-MEL-28, in the test on LOX IMVI, in the test with EKVX, with Hs-578T, in the test on A549 and in the test on SK-MEL-2 was > 100 µM (inactive) each time. The GI50 with CCRF-CEM, with U-251, in the test on A498, in the test on SNB-75, with HOP-62 and with SN12C was > 100 µM (inactive) in each case. Also, the GI50 in the test on MCF7, with HT-29, in the test on MOLT-4, in the test on BT-549, in the test on NCI/ADR-RES and in the test on T47D was > 100 µM (inactive) in each case. Moreover, the GI50 in the test on SW-620 is > 100 µM (inactive).

On to `c1ccc(-c2ccc(/N=N/N3CCCC3)cc2)cc1`, for which the GI50 with LOX IMVI, in the test on EKVX, with Hs-578T, in the test with SK-MEL-2, in the test on CCRF-CEM and in the test on U-251 was > 100 µM (inactive) throughout. Besides, the GI50 in the test with A498, with SNB-75, in the test with SK-OV-3, with HOP-62, in the test with SN12C and in the test with MCF7 was > 100 µM (inactive) throughout. Further, the GI50 in the test with MOLT-4, in the test on BT-549, with NCI/ADR-RES, in the test on T47D and with SW-620 was > 100 µM (inactive) each time.

As for `CNN1C(=O)c2c(N)c(C#N)c(-c3ccccc3)c(-c3ccccc3)c2C1=O`, the GI50 in the test on SK-MEL-28 was > 100 µM (inactive); in the test with LOX IMVI, > 100 µM (inactive); with EKVX, > 100 µM (inactive); with Hs-578T it was 70.1 µM (inactive); in the test on A549 it was > 100 µM (inactive); with SK-MEL-2, > 100 µM (inactive). Moreover, the GI50 is 41.1 µM (inactive) in the test on CCRF-CEM; 78.9 µM (inactive) in the test with U-251; > 100 µM (inactive) in the test with A498; 83.4 µM (inactive) with SNB-75; > 100 µM (inactive) in the test with SN12C; 65.8 µM (inactive) with MCF7. In addition, the GI50 in the test with MOLT-4 is 39.5 µM (inactive); in the test on BT-549 it was > 100 µM (inactive); in the test with NCI/ADR-RES, 82.2 µM (inactive); with T47D, 17.9 µM (inactive); with SW-620 it was > 100 µM (inactive).

Regarding `COc1ccccc1N1C(=O)/C(=C\c2cc(OC)c(OC)c(OC)c2)S(=O)(=O)C1c1ccccc1` (configuration not stated), the GI50 is 27.4 µM (inactive) with SK-MEL-28; 29.4 µM (inactive) in the test on LOX IMVI; 32.7 µM (inactive) with Hs-578T; 44 µM (inactive) in the test on A549; 26.9 µM (inactive) in the test with SK-MEL-2; 15.6 µM (inactive) in the test with CCRF-CEM. Besides, the GI50 in the test with U-251 is 18.6 µM (inactive); in the test with A498 it was 48.2 µM (inactive); with SK-OV-3, 20.6 µM (inactive); in the test with HOP-62, 37.7 µM (inactive); with SN12C it was 73.6 µM (inactive); in the test with MCF7, 27.4 µM (inactive). Moreover, the GI50 in the test with MOLT-4 was 31.8 µM (inactive); in the test with BT-549, 30.5 µM (inactive); in the test with NCI/ADR-RES, 22.2 µM (inactive); with T47D, 29.6 µM (inactive); with SW-620, 30 µM (inactive).
